ChEMBL document CHEMBL1201862, “PubChem BioAssay data set” (2004)
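All cell lines were grown in 96-well plates and treated with compound for 48 hours. GI50 = concentration required for 50% inhibition of growth.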 Activity calls are given as the source filed them. Rule as the data show it: active = GI50 up to about 1.1 µM and inactive = higher.

Legend:
Assay in all cases: DTP human tumour cell line panel, 48 h
NCI-H23 = system: NCI-H23
MDA-MB-231 = system: MDA-MB-231
SF-268 = system: SF-268
A498 = system: A498
MDA-N = system: MDA-N
MCF7 = system: MCF7
UACC-62 = system: UACC-62
NCI-H522 = system: NCI-H522
K562 = system: K562
SR = system: SR
LOX IMVI = system: LOX IMVI
COLO 205 = system: COLO 205
Malme-3M = system: Malme-3M
OVCAR-4 = system: OVCAR-4
SNB-19 = system: SNB-19
NCI-H226 = system: NCI-H226
UO-31 = system: UO-31
TK-10 = system: TK-10
OVCAR-8 = system: OVCAR-8
HL-60 = system: HL-60

Measured: GI50

O=C1Nc2ccccc2/C1=N\c1cccc2ncccc12
inactive: NCI-H23 32.2 µM | MDA-MB-231 > 100 µM | SF-268 67.1 µM | A498 > 100 µM | MDA-N 34.5 µM | MCF7 50.5 µM | UACC-62 > 100 µM | NCI-H522 28.1 µM | K562 34 µM | SR 31.6 µM | LOX IMVI 27.4 µM | COLO 205 > 100 µM | Malme-3M > 100 µM | OVCAR-4 68.9 µM | SNB-19 > 100 µM | NCI-H226 > 100 µM | UO-31 > 100 µM | TK-10 > 100 µM | OVCAR-8 > 100 µM

CN(/N=C/C=N/N(C)C1=NCCN1)C1=NCCN1
inactive: NCI-H23 > 100 µM | MDA-MB-231 > 100 µM | SF-268 > 100 µM | MDA-N > 100 µM | MCF7 > 100 µM | UACC-62 > 100 µM | NCI-H522 > 100 µM | K562 > 100 µM | SR > 100 µM | LOX IMVI > 100 µM | COLO 205 > 100 µM | Malme-3M > 100 µM | OVCAR-4 > 100 µM | SNB-19 > 100 µM | NCI-H226 > 100 µM | UO-31 > 100 µM | TK-10 > 100 µM | OVCAR-8 > 100 µM

COc1ccc(N(C(=O)Nc2ccc(Cl)c(Cl)c2)C2c3cccn3C(=O)N2c2ccc(Cl)c(Cl)c2)cc1 (configuration not stated)
inactive: NCI-H23 92 µM | MDA-MB-231 47.8 µM | SF-268 8.43 µM | A498 27.7 µM | MDA-N 87.7 µM | MCF7 43.3 µM | UACC-62 41.9 µM | K562 13.8 µM | SR 12.4 µM | LOX IMVI 15.8 µM | COLO 205 > 100 µM | Malme-3M > 100 µM | OVCAR-4 30.1 µM | SNB-19 > 100 µM | NCI-H226 > 100 µM | HL-60 25.1 µM | UO-31 > 100 µM | TK-10 > 100 µM | OVCAR-8 > 100 µM

C1CSCCSCCCSC2CCCCC2SC1 (configuration not stated)
inactive: NCI-H23 80.5 µM | MDA-MB-231 60 µM | SF-268 > 100 µM | MDA-N > 100 µM | MCF7 > 100 µM | UACC-62 > 100 µM | NCI-H522 > 100 µM | K562 45 µM | SR 46.5 µM | LOX IMVI > 100 µM | COLO 205 86.3 µM | OVCAR-4 > 100 µM | SNB-19 > 100 µM | HL-60 17.3 µM | UO-31 > 100 µM | TK-10 > 100 µM | OVCAR-8 > 100 µM

C/C=C/C(C#N)(Cc1ccccc1)OP1(=O)OC(c2ccccc2)C(C)N1C (configuration not stated)
inactive: NCI-H23 87.3 µM | MDA-MB-231 > 100 µM | SF-268 > 100 µM | A498 69.3 µM | MDA-N 88.1 µM | MCF7 54.2 µM | UACC-62 56.5 µM | NCI-H522 50.1 µM | K562 38.5 µM | SR 36 µM | LOX IMVI 44.1 µM | COLO 205 > 100 µM | Malme-3M > 100 µM | SNB-19 78.5 µM | HL-60 17 µM | UO-31 55.3 µM | TK-10 > 100 µM | OVCAR-8 86.7 µM

CC1CC(C)C(C#N)N(C)c2ccccc21 (configuration not stated)
inactive: NCI-H23 > 100 µM | MDA-MB-231 > 100 µM | SF-268 > 100 µM | A498 > 100 µM | MDA-N > 100 µM | MCF7 81.3 µM | UACC-62 97.5 µM | K562 87.9 µM | SR 25.6 µM | COLO 205 > 100 µM | Malme-3M > 100 µM | OVCAR-4 > 100 µM | SNB-19 > 100 µM | NCI-H226 > 100 µM | HL-60 26.7 µM | UO-31 > 100 µM | TK-10 > 100 µM | OVCAR-8 > 100 µM

C=C1C(=O)OC2CCN3CC=C(COC(=O)C(C)(O)C4(CO4)C1C)C23 (configuration not stated)
inactive: NCI-H23 > 100 µM | MDA-MB-231 > 100 µM | SF-268 > 100 µM | A498 > 100 µM | MDA-N > 100 µM | MCF7 > 100 µM | UACC-62 > 100 µM | NCI-H522 > 100 µM | K562 > 100 µM | SR > 100 µM | LOX IMVI > 100 µM | COLO 205 > 100 µM | Malme-3M > 100 µM | OVCAR-4 > 100 µM | SNB-19 > 100 µM | NCI-H226 > 100 µM | UO-31 > 100 µM | TK-10 > 100 µM | OVCAR-8 > 100 µM

COc1ccc(N2C(=O)C3c4[nH]c5ccc(C)cc5c4C4CCC(C(C)C)CC4C3C2=O)cc1 (configuration not stated)
inactive: NCI-H23 > 100 µM | MDA-MB-231 > 100 µM | SF-268 75.5 µM | A498 > 100 µM | MDA-N > 100 µM | MCF7 > 100 µM | UACC-62 > 100 µM | NCI-H522 > 100 µM | K562 > 100 µM | SR > 100 µM | LOX IMVI > 100 µM | COLO 205 > 100 µM | OVCAR-4 > 100 µM | SNB-19 > 100 µM | NCI-H226 > 100 µM | UO-31 > 100 µM | TK-10 > 100 µM | OVCAR-8 > 100 µM

O=C(NCCC1CNc2ccccc21)OCc1ccccc1 (configuration not stated)
inactive: NCI-H23 > 100 µM | MDA-MB-231 > 100 µM | SF-268 > 100 µM | A498 > 100 µM | MDA-N > 100 µM | MCF7 > 100 µM | UACC-62 > 100 µM | NCI-H522 > 100 µM | K562 > 100 µM | SR > 100 µM | COLO 205 > 100 µM | Malme-3M > 100 µM | OVCAR-4 > 100 µM | SNB-19 > 100 µM | UO-31 > 100 µM | OVCAR-8 > 100 µM

Oc1ccc(Oc2cc3c(cc2Oc2ccc(O)cc2)-c2nc-3nc3[nH]c(nc4nc(nc5[nH]c(n2)c2cc(Oc6ccc(O)cc6)c(Oc6ccc(O)cc6)cc52)-c2cc(Oc5ccc(O)cc5)c(Oc5ccc(O)cc5)cc2-4)c2cc(Oc4ccc(O)cc4)c(Oc4ccc(O)cc4)cc32)cc1
inactive: NCI-H23 > 100 µM | MDA-MB-231 23.5 µM | SF-268 > 100 µM | MDA-N > 100 µM | MCF7 > 100 µM | UACC-62 76 µM | NCI-H522 > 100 µM | K562 > 100 µM | SR > 100 µM | LOX IMVI 39.9 µM | COLO 205 > 100 µM | Malme-3M 19.1 µM | OVCAR-4 35.7 µM | SNB-19 > 100 µM | NCI-H226 > 100 µM | UO-31 > 100 µM | TK-10 > 100 µM | OVCAR-8 > 100 µM

COc1ccccc1C(=O)NO
inactive: NCI-H23 > 100 µM | MDA-MB-231 > 100 µM | SF-268 > 100 µM | MDA-N > 100 µM | MCF7 > 100 µM | UACC-62 > 100 µM | NCI-H522 49.1 µM | K562 > 100 µM | SR > 100 µM | LOX IMVI > 100 µM | COLO 205 > 100 µM | OVCAR-4 > 100 µM | SNB-19 > 100 µM | NCI-H226 > 100 µM | HL-60 > 100 µM | UO-31 > 100 µM | TK-10 > 100 µM | OVCAR-8 > 100 µM

CC(C)(C)c1ccccc1N1C(=O)c2ccc3c4c(ccc(c24)C1=O)N(c1ccccc1C(C)(C)C)C3=O
inactive: NCI-H23 > 100 µM | MDA-MB-231 > 100 µM | SF-268 > 100 µM | MDA-N > 100 µM | MCF7 > 100 µM | UACC-62 > 100 µM | NCI-H522 5.07 µM | K562 > 100 µM | SR > 100 µM | COLO 205 > 100 µM | OVCAR-4 > 100 µM | SNB-19 > 100 µM | UO-31 > 100 µM | OVCAR-8 > 100 µM

COC(=O)C1=C(O)C(C(=O)OC)[C@]2(O)[C@H](C(=O)OC)[C@H]1C[C@@H](c1c(Cl)cccc1Cl)[C@H]2C(=O)OC (some centres not stated)
inactive: NCI-H23 2.02 µM | MDA-MB-231 2.96 µM | SF-268 3.13 µM | A498 2 µM | MDA-N 1.37 µM | MCF7 3.24 µM | UACC-62 2.02 µM | K562 2.05 µM | SR 1.82 µM | LOX IMVI 1.87 µM | COLO 205 2.07 µM | Malme-3M 2.07 µM | OVCAR-4 3.6 µM | SNB-19 2.07 µM | NCI-H226 2.14 µM | HL-60 5.81 µM | UO-31 1.65 µM | OVCAR-8 1.79 µM

CC(=O)Oc1cc(S(=O)(=O)Nc2nc(N)n[nH]2)c(S)cc1Cl
inactive: NCI-H23 > 100 µM | MDA-MB-231 > 100 µM | A498 > 100 µM | MDA-N > 100 µM | MCF7 > 100 µM | UACC-62 > 100 µM | NCI-H522 > 100 µM | K562 > 100 µM | SR > 100 µM | LOX IMVI > 100 µM | COLO 205 > 100 µM | Malme-3M > 100 µM | OVCAR-4 > 100 µM | SNB-19 > 100 µM | HL-60 > 100 µM | UO-31 > 100 µM | TK-10 > 100 µM | OVCAR-8 > 100 µM

O=C1C(c2ccccc2)=[N+]([O-])c2ccccc21
inactive: NCI-H23 19.4 µM | MDA-MB-231 11.7 µM | SF-268 14.1 µM | A498 17.9 µM | MDA-N 3.29 µM | MCF7 1.64 µM | UACC-62 15.5 µM | K562 3.15 µM | SR 5.6 µM | LOX IMVI 3.35 µM | COLO 205 16.2 µM | Malme-3M 17.4 µM | OVCAR-4 4.04 µM | SNB-19 19 µM | NCI-H226 17.1 µM | HL-60 14.9 µM | UO-31 16.2 µM | TK-10 20 µM | OVCAR-8 18.6 µM
